{"source": "paper PMC3726599", "about": "“A Metabolically-Stabilized Phosphonate Analog of Lysophosphatidic Acid Attenuates Collagen-Induced Arthritis” (PLoS ONE, 2013)", "key": {"MDA-MB-231": {"test_system": "MDA-MB-231", "design": "method as in PMID 19509223", "settings": "MDA-MB-231, in vitro; cited from earlier work"}, "plasma ATX activity": {"test_system": "T1, plasma ATX activity", "T1 construct": "from tissue; host or cells: mouse plasma / whole blood", "test": "In vivo inhibition of plasma ATX activity (TOOS assay)", "design": "species or system mouse", "settings": "10 mg/kg i.p.", "method": "ATX/LysoPLD activity was assessed based on the amount of choline released from LPC with the use of TOOS (N-ethyl-N-(2-hydoroxy-3-sulfopropyl)-3-methylaniline) reagent. In this assay ATX-mediated LPC-liberated choline is oxidised by choline oxidase to betaine and hydrogen peroxide (H2O2). The latter in the presence of horseradish peroxidase reacts with TOOS and 4-aminoantipyrene (4-AAP) to form a pink quinoneimine dye measured at 555 nm. […]\nThe liberated choline was detected by adding 100 μl of a color mix containing 4-AAP and TOOS (0.3 mM), horseradish peroxidase (5.3 UnitmL^−1) and choline oxidase (2 UnitmL^−1). Absorbance was measured at 555 nm and data were analyzed using the statistical software package Prism 4.0 (Graphpad Software Inc, La Jolla, CA, USA). For each sample and control the absorbance was plotted against time and the slope (da/min) for the linear (steady-state) portion of each reaction profile was calculated. Absorbance units were converted to nmol of choline/min/ml by comparison with a choline standard curve or by use of the extinction coefficient for the quinoneimine dye according to the following equation: [drawing 1] […]\nBrP-LPA was administered intraperitoneally (IP) at 10 mg/kg in water to 6–8 week old female mice. […] Plasma samples were then analysed for plasma ATX activity and BrP-LPA/LPA/LPC levels with the TOOS activity assay and HPLC-MS/MS respectively. […]"}, "[1]": {"test_system": "orthotopic breast cancer xenograft model", "design": "method as in PMID 19509223", "settings": "in vivo; cited from earlier work"}, "LPA4": {"test_system": "LPA4", "settings": "Ca++ mobilization, CHO cells; kind of constant not given; read-out: inhibition of LPA4; cited from earlier work"}, "[2]": {"test_system": "non-small cell lung cancer xenograft", "design": "method as in PMID 20143443", "settings": "three-dimensional non-small cell lung cancer xenograft; cited from earlier work"}}, "data": [{"smiles": "CCCCCCCCCCCCCCCC(=O)OC[C@@H](O)CC(Br)P(=O)(O)O", "note": "(stereo partly drawn) [BrP-LPA, 1-bromo-3(S)-hydroxy-4-(palmitoyloxy)butyl-phosphonate]", "values": [{"measurement": "breast cancer cell migration", "setting": "MDA-MB-231", "value": "reduce breast cancer cell (MDA-MB-231) migration in vitro"}, {"measurement": "reduction of plasma ATX activity", "setting": "plasma ATX activity; 1 hour post administration", "value": 48, "unit": "%"}, {"measurement": "ATX activity, % of initial activity", "setting": "plasma ATX activity; sixteen hours post administration", "value": 92, "unit": "%"}, {"measurement": "tumor regression", "setting": "[1]", "value": "cause tumor regression in vivo"}, {"measurement": "IC50", "setting": "LPA4", "value": 0.27, "unit": "µM"}, {"measurement": "tumor growth and angiogenesis", "setting": "[2]", "value": "inhibit tumor growth and angiogenesis"}]}]}
